The test system of data set [1] is Rattus norvegicus. As to the kind of experiment: Gastrointestinal toxicity in Wistar rat assessed as ulcer index at 3000 mg/kg, po by Rainsford's cold stress method. Format: organism-based. Details: dose 3000 mg/kg, route oral. Particulars: in vivo.
Data set [2] deals with Rattus norvegicus. As to the kind of experiment: Antiinflammatory activity against trinitrobenzenesulfonic acid-induced colitis in Wistar rat assessed as decrease in colonic myeloperoxidase activity at 100 mg/kg, po measured 24 hrs after last dose on day 11 by spectrometry. The format is functional, organism-based. Details: dose 100 mg/kg.
In data set [3] the test system is Rattus norvegicus. The data set is described as follows: Antiarthritic activity against Freund's adjuvant-induced arthritis in Wistar rat assessed as reduction in paw volume administered 13 days after Freund's adjuvant challenge measured on day 21. The format is functional. Details: concentration or dose not given beside the values.
For data set [4], the system named is Rattus norvegicus. As to the kind of experiment: Antiinflammatory activity against trinitrobenzenesulfonic acid-induced colitis in Wistar rat at 100 mg/kg, administered rectally. Details: dose 100 mg/kg. Format: functional, organism-based.
Data set [5] relates to Rattus norvegicus. The data set is described as follows: Antiinflammatory activity against trinitrobenzenesulfonic acid-induced colitis in Wistar rat assessed as decrease in colon to body weight ratio at 100 mg/kg, po measured 24 hrs after last dose on day 11. Set-up: dose 100 mg/kg. The format is functional, organism-based.
Data set [6] in a line: Stability in rat feces assessed as cumulated 5-aminosalicylic acid release measured for 6 to 7 hrs by UV spectrophotometry in presence of azo reductase. Format: ADME, tissue-based.
A short description of data set [7]: Stability in 0.05 M hydrochloric acid buffer of pH 1.2. The format is physicochemical.
In data set [8] the test system is Rattus norvegicus. As to the kind of experiment: Gastrointestinal toxicity in Wistar rat assessed as ulcer index at 2829 mg/kg, po by Rainsford's cold stress method. The format is organism-based. Details: dose 2829 mg/kg, route oral. Particulars: in vivo.
Data set [9] is described as follows: Aqueous solubility of the compound. Format: physicochemical. Particulars: aqueous medium.
Data set [10] is described as follows: Partition coefficient, log P in n-octanol/phosphate buffer of pH 7.4. The format is physicochemical.
Data set [11] in a line: Stability in rat feces assessed as half life at 250 ug/mL by UV spectrophotometry in presence of azo reductase. Format: ADME, tissue-based.
Data set [12] in a line: Stability in phosphate buffer of pH 7.4 assessed as drug release after 7 hrs. The format is physicochemical. Particulars: pH 7.4, 7 h.
The subject of data set [13] is Rattus norvegicus. As to the kind of experiment: Antiinflammatory activity against trinitrobenzenesulfonic acid-induced colitis in Wistar rat assessed as decrease in appearance of mucosal abscess at 100 mg/kg administered rectally measured 24 hrs after last dose on day 11 by haematoxylin/eosin staining. Format: functional, organism-based. Details: dose 100 mg/kg.

Data set [14] has as its system Rattus norvegicus. As to the kind of experiment: Antiinflammatory activity against trinitrobenzenesulfonic acid-induced colitis in Wistar rat assessed as decrease in appearance of mucosal abscess at 100 mg/kg, po measured 24 hrs after last dose on day 11 by haematoxylin/eosin staining. Format: functional, organism-based. Set-up: dose 100 mg/kg.
Data set [15] relates to Rattus norvegicus. As to the kind of experiment: Antiinflammatory activity against trinitrobenzenesulfonic acid-induced colitis in Wistar rat at 100 mg/kg, administered rectally in presence of 5-aminosalicylic acid. Format: functional, organism-based. Set-up: dose 100 mg/kg.
In data set [16] the test system is Rattus norvegicus. As to the kind of experiment: Antiinflammatory activity against trinitrobenzenesulfonic acid-induced colitis in Wistar rat assessed as decrease in inflammatory cell infiltration at 100 mg/kg administered rectallysmeasured 24 hrs after last dose on day 11 by haematoxylin/eosin staining. Format: functional, organism-based. Set-up: dose 100 mg/kg.

Data set [17] deals with Rattus norvegicus. As to the kind of experiment: Antiinflammatory activity against trinitrobenzenesulfonic acid-induced colitis in Wistar rat assessed as decrease in inflammatory cell infiltration at 100 mg/kg administered rectally measured 24 hrs after last dose on day 11 by haematoxylin/eosin staining in presence of sulfasalazine. The format is functional, organism-based. Details: dose 100 mg/kg.

Data set [18] concerns Rattus norvegicus. The data set is described as follows: Antiinflammatory activity against trinitrobenzenesulfonic acid-induced colitis in Wistar rat assessed as decrease in appearance of mucosal abscess at 100 mg/kg administered rectally measured 24 hrs after last dose on day 11 by haematoxylin/eosin staining in presence of sulfasalazine. The format is functional, organism-based. Details: dose 100 mg/kg.

Data set [19] has as its system Rattus norvegicus. As to the kind of experiment: Gastrointestinal toxicity in Wistar rat assessed as ulcer index at 3647.7 mg/kg, po by Rainsford's cold stress method. Particulars: in vivo. The format is organism-based. Details: dose 3647.7 mg/kg, route oral.
Data set [20] has as its system Rattus norvegicus. As to the kind of experiment: Gastrointestinal toxicity in Wistar rat assessed as ulcer index at 1154.3 mg/kg, po by Rainsford's cold stress method. Details: dose 1154.3 mg/kg, route oral. The note with it: in vivo. The format is organism-based.
Data set [21] deals with Rattus norvegicus. As to the kind of experiment: Antiinflammatory activity against trinitrobenzenesulfonic acid-induced colitis in Wistar rat at 100 mg/kg, po. The format is functional, organism-based. Details: dose 100 mg/kg.
The test system of data set [22] is Rattus norvegicus. As to the kind of experiment: Antiinflammatory activity against trinitrobenzenesulfonic acid-induced colitis in Wistar rat assessed as decrease in inflammatory cell infiltration at 100 mg/kg, po measured 24 hrs after last dose on day 11 by haematoxylin/eosin staining. The format is functional, organism-based. Details: dose 100 mg/kg.
Data set [23] deals with Rattus norvegicus. The data set is described as follows: Gastrointestinal toxicity in Wistar rat assessed as ulcer index at 3050 mg/kg, po by Rainsford's cold stress method. The note with it: in vivo. Format: organism-based. Details: dose 3050 mg/kg, route oral.

Each structure is given as a SMILES string. The source made the active and inactive calls. The calls are words filed in the database; no cut-off is given here.

Consider `O=C(O)c1cc(/N=N/c2ccc(S(=O)(=O)Nc3ccccn3)cc2)ccc1O` [SULFASALAZINE], for which the UI in the data set on Rattus norvegicus [1] came to 9. Also, the result in the data set with Rattus norvegicus [2], in the data set with Rattus norvegicus [4] and in the data set with Rattus norvegicus [5] was Active. Moreover, in the data set on Rattus norvegicus [3], the Activity is recorded as 73%.
One may read the solubility as how much of the substance goes into solution per volume. As usually defined, the logD is lipophilicity at a set pH, counting ionised and neutral species. Broadly, the half-life is how long it takes for the measured level to halve. Regarding `O=C([O-])c1cc(/N=N/[C@@H](Cc2c[nH]c3ccccc23)C(=O)[O-])ccc1O.[Na+].[Na+]`, the Activity in data set [6] amounted to 88%; in the data set with Rattus norvegicus [3], 62%; in data set [12], 15%. The Stability result in data set [7] is “Stable”. For the same compound, the result in the data set with Rattus norvegicus [2], with Rattus norvegicus [4] and in the data set with Rattus norvegicus [5] was Active. For the same compound, in the data set with Rattus norvegicus [8], the UI is on record as 13. Further, the solubility in data set [9] amounted to 280 mg/mL. In data set [10], this compound yielded a logD of 0.26. The half-life at 250 ug/mL in data set [11] was found to be 2.4 h.
As for `N[C@H](Cc1ccccc1)C(=O)O`, the result in the data set with Rattus norvegicus [13], with Rattus norvegicus [14], in the data set with Rattus norvegicus [15], with Rattus norvegicus [16], with Rattus norvegicus [17] and in the data set with Rattus norvegicus [4] was Active. In the data set on Rattus norvegicus [18], the outcome was Active.
`O=C([O-])c1cc(/N=N/[C@@H](Cc2ccc(O)cc2)C(=O)[O-])ccc1O.[Na+].[Na+]`: the Activity in data set [6] is 87%; in the data set with Rattus norvegicus [3] it was 62%. In addition, the Stability entry in [7] is given as “Stable”. Also, the result with Rattus norvegicus [2], in the data set on Rattus norvegicus [4] and in the data set with Rattus norvegicus [5] was Active. Moreover, the UI in the data set with Rattus norvegicus [19] came out at 10.76. Besides, in data set [9], the concentration in solution (solubility) came to 260 mg/mL. The compound further had a logD in [10] of 0.35. Also, the half-life at 250 ug/mL in data set [11] was 2.33 h.
Regarding `Nc1ccc(C(=O)O)c(O)c1` [AMINOSALICYLIC ACID], the UI in the data set with Rattus norvegicus [20] is 69.61.
Regarding `N[C@@H](Cc1ccc(O)cc1)C(=O)O`, the outcome in the data set with Rattus norvegicus [13], with Rattus norvegicus [15] and in the data set on Rattus norvegicus [17] was Active. Further, the result in the data set on Rattus norvegicus [14], in the data set with Rattus norvegicus [21] and in the data set with Rattus norvegicus [22] was inactive.
In the case of `Nc1ccc(O)c(C(=O)O)c1` [MESALAMINE], the Activity in the data set on Rattus norvegicus [3] came to 47%. Also, the UI in the data set with Rattus norvegicus [20] turned out to be 60.03.
Regarding `N[C@@H](Cc1c[nH]c2ccccc12)C(=O)O`, the outcome with Rattus norvegicus [13], in the data set on Rattus norvegicus [14], with Rattus norvegicus [21], in the data set with Rattus norvegicus [15], with Rattus norvegicus [16] and with Rattus norvegicus [17] was Active. Further, the outcome in the data set on Rattus norvegicus [18] and in the data set on Rattus norvegicus [22] was Active.
As to `O=C([O-])c1cc(/N=N/[C@H](Cc2ccccc2)C(=O)[O-])ccc1O.[Na+].[Na+]`, the Activity in [6] turned out to be 85%; in the data set on Rattus norvegicus [3], 62%; in [12], 15%. Moreover, the Stability entry in data set [7] is listed as “Stable”. Moreover, the outcome with Rattus norvegicus [2], with Rattus norvegicus [4] and in the data set on Rattus norvegicus [5] was Active. The solubility in data set [9] was determined as 250 mg/mL. Moreover, in [10], the logD stood at 0.3. In addition, the half-life at 250 ug/mL in data set [11] was 2.67 h. Further, in the data set with Rattus norvegicus [23], the UI is reported as 11.3.

(Values after ChEMBL document CHEMBL1154161, “Synthesis, kinetic studies and pharmacological evaluation of mutual azo prodrugs of 5-aminosalicylic acid for colon-specific drug delivery in inflammatory bowel disease” (Eur J Med Chem, 2009).)
